In patent publication US9212170B2, “4-alkanoylamino-3-pyrazolone derivative” (Daiichi Sankyo Company, Limited, priority 2012, dated 2015) one finds fold induction data, which are given here for 27 compounds.

Structures can show the parent of a compound that is named as a salt.

In the assay the test system is human liver cancer-derived cell line Hep3B. The assay is described as follows: In vitro erythropoietin (EPO) induction activity in Hep3B cells (human EPO ELISA of culture supernatant). The conditions noted are these: test compound 12.5 μM in 0.5% DMSO, 32 hours at 37° C., EPO in culture supernatant expressed as a multiple of the control (0.5% DMSO = 1), read-out: EPO concentration (multiple). The format is cell-based. The protocol:
In vitro erythropoietin (EPO) induction activity of test compounds was evaluated using human liver cancer-derived cell line Hep3B (ATCC, Manassas, Va.). Hep3B cells were cultured overnight at 37° C. in Dulbecco's modified Eagle's medium (DMEM) in the presence of 10% fetal bovine serum (FBS) (24-well plate, 1.0×10^5 cells/well). After replacing with fresh DMEM (+10% FBS) containing a test compound dissolved in 0.5% dimethyl sulfoxide (DMSO) (prepared to a concentration of 12.5 μM) or a solvent control (0.5% DMSO), the cells were cultured for 32 hours at 37° C. After recovering the culture supernatant, EPO concentration in the culture supernatant was quantified using human EPO ELISA kits (StemCell Technologies). The EPO concentration obtained using each test compound was expressed as a multiple of the EPO concentration obtained using the control.
With `CC(=O)Nc1c[nH]n(-c2ccc(C(=O)Nc3ccc(C4CCCCC4)cc3)cn2)c1=O` [Example 1, 6-(4-Acetamido-5-oxo-2,5-dihydro-1H-pyrazol-1-yl)-N-(4-cyclohexylphenyl)nicotinamide], the fold induction at 12.5 µM turned out to be 37.
As for `CC(=O)Nc1c[nH]n(-c2ccc(C(=O)Nc3ccc(C(C)(C)C)cc3)cn2)c1=O` [Example 2, 6-(4-Acetamido-5-oxo-2,5-dihydro-1H-pyrazol-1-yl)-N-(4-tert-butylphenyl)nicotinamide], the figure is 36; as for `CC(=O)Nc1c[nH]n(-c2ccc(C(=O)Nc3cccc(C(C)(C)C)c3)cn2)c1=O` [Example 3, 6-(4-Acetamido-5-oxo-2,5-dihydro-1H-pyrazol-1-yl)-N-(3-tert-butylphenyl)nicotinamide], 17; as for `CC(=O)Nc1c[nH]n(-c2ccc(C(=O)Nc3ccc(C(F)(F)F)cc3)cn2)c1=O` [Example 4, 6-(4-Acetamido-5-oxo-2,5-dihydro-1H-pyrazol-1-yl)-N-[4-(trifluoromethyl)phenyl]nicotinamide], 17.
To `CC(=O)Nc1c[nH]n(-c2ccc(C(=O)Nc3ccc(Cl)cc3)cn2)c1=O` [Example 5, 6-(4-Acetamido-5-oxo-2,5-dihydro-1H-pyrazol-1-yl)-N-(4-chlorophenyl)nicotinamide] belongs 12; to `CC(=O)Nc1c[nH]n(-c2cc(N3CCOCC3)ncn2)c1=O` [Example 6, N-[2-(6-Morpholin-4-ylpyrimidin-4-yl)-3-oxo-2,3-dihydro-1H-pyrazol-4-yl]acetamide formate], 13.
As for `CC(=O)Nc1c[nH]n(-c2cc(N3CCCCC3)ncn2)c1=O` [Example 7, N-[3-Oxo-2-(6-piperidin-1-ylpyrimidin-4-yl)-2,3-dihydro-1H-pyrazol-4-yl]acetamide formate], the figure is 29; as for `CC(=O)Nc1c[nH]n(-c2ccc(COCc3ccccc3)cn2)c1=O` [Example 8, N-(2-{5-[(Benzyloxy)methyl]pyridin-2-yl}-3-oxo-2,3-dihydro-1H-pyrazol-4-yl)acetamide], 26; as for `CC(=O)Nc1c[nH]n(-c2cc(NCCc3ccccc3)ncn2)c1=O` [Example 9, N-(3-Oxo-2-{6-[(2-phenylethyl)amino]pyrimidin-4-yl}-2,3-dihydro-1H-pyrazol-4-yl)acetamide], 6.1.
For `CC(=O)Nc1c[nH]n(-c2cc(COCc3ccccc3)ccn2)c1=O` [Example 10, N-(2-{4-[(Benzyloxy)methyl]pyridin-2-yl}-3-oxo-2,3-dihydro-1H-pyrazol-4-yl)acetamide], the fold induction at 12.5 µM came out at 23.
Turning to `CC(=O)Nc1c[nH]n(-c2ccc(C(=O)NCc3cccc(-c4ccccc4)c3)cn2)c1=O` [Example 11, 6-(4-Acetamido-5-oxo-2,5-dihydro-1H-pyrazol-1-yl)-N-(biphenyl-3-ylmethyl)nicotinamide], the fold induction at 12.5 µM came to 41.
As for `CC(=O)Nc1c[nH]n(-c2ccc(C(=O)NCc3ccc(-c4ccccc4C#N)cc3)cn2)c1=O` [Example 12, 6-(4-Acetamido-5-oxo-2,5-dihydro-1H-pyrazol-1-yl)-N-[(2′-cyanobiphenyl-4-ylmethyl)]nicotinamide], the figure is 2.8.
`CC(=O)Nc1c[nH]n(-c2ccc(COCc3ccc(-c4ccccc4C#N)cc3)cn2)c1=O` [Example 13, N-[2-(5-{[(2′-Cyanobiphenyl-4-yl)methoxy]methyl}pyridin-2-yl)-3-oxo-2,3-dihydro-1H-pyrazol-4-yl]acetamide]: the fold induction at 12.5 µM was 29.
For the compound `CC(=O)Nc1c[nH]n(-c2ccc(COCc3ccc(-c4ccccc4)cc3)cn2)c1=O` [Example 14, N-(2-{5-[(Biphenyl-4-ylmethoxy)methyl]pyridin-2-yl}-3-oxo-2,3-dihydro-1H-pyrazol-4-yl)acetamide], the fold induction at 12.5 µM stood at 22.
As for `CC(=O)Nc1c[nH]n(-c2ccc(COCc3cccc(-c4ccccc4)c3)cn2)c1=O` [Example 15, N-(2-{5-[(Biphenyl-3-ylmethoxy)methyl]pyridin-2-yl}-3-oxo-2,3-dihydro-1H-pyrazol-4-yl)acetamide], the figure is 24; as for `CC(=O)Nc1c(C)[nH]n(-c2ccc(C(=O)Nc3ccc(C(F)(F)F)cc3)cn2)c1=O` [Example 16, 6-(4-Acetamido-3-methyl-5-oxo-2,5-dihydro-1H-pyrazol-1-yl)-N-[4-(trifluoromethyl)phenyl]nicotinamide], 3.4; as for `CC(=O)Nc1c(C)[nH]n(-c2ccc(C(=O)Nc3ccc(Cl)cc3)cn2)c1=O` [Example 17, 6-(4-Acetamido-3-methyl-5-oxo-2,5-dihydro-1H-pyrazol-1-yl)-N-(4-chlorophenyl)nicotinamide], 4.3.
On to `CC(=O)Nc1c(C)[nH]n(-c2ccc(C(=O)Nc3ccc(Br)cc3)cn2)c1=O` [Example 18, 6-(4-Acetamido-3-methyl-5-oxo-2,5-dihydro-1H-pyrazol-1-yl)-N-(4-bromophenyl)nicotinamide], for which the fold induction at 12.5 µM worked out at 3.3.
To `CC(=O)Nc1c(C)[nH]n(-c2ccc(C(=O)Nc3ccc(C(C)(C)C)cc3)cn2)c1=O` [Example 19, 6-(4-Acetamido-3-methyl-5-oxo-2,5-dihydro-1H-pyrazol-1-yl)-N-(4-tert-butylphenyl)nicotinamide] belongs 13.
As for `CC(=O)Nc1c(C)[nH]n(-c2ccc(C(=O)Nc3ccc(-c4ccccc4)nc3)cn2)c1=O` [Example 20, 6-(4-Acetamido-3-methyl-5-oxo-2,5-dihydro-1H-pyrazol-1-yl)-N-(6-phenylpyridin-3-yl)nicotinamide], the figure is 3.7.
As for `CC(=O)Nc1c(C)[nH]n(-c2ccc(COCc3ccc(-c4ccccc4C#N)cc3)cn2)c1=O` [Example 21, N-[2-(5-{[(2′-Cyanobiphenyl-4-yl)methoxy]methyl}pyridin-2-yl)-5-methyl-3-oxo-2,3-dihydro-1H-pyrazol-4-yl]acetamide], the figure is 20.
Regarding `Cc1[nH]n(-c2ccc(C(=O)Nc3ccc(-c4ccccc4)nc3)cn2)c(=O)c1NC(=O)CCC(=O)OC(C)(C)C` [Example 22, Tert-butyl 4-[(5-methyl-3-oxo-2-{5-[(6-phenylpyridyl-3-yl)carbamoyl]pyridin-2-yl}-2,3-dihydro-1H-pyrazol-4-yl)amino]-4-oxobutanoate], the fold induction at 12.5 µM came out at 1.9.
To `Cc1[nH]n(-c2ccc(C(=O)Nc3ccc(-c4ccccc4)nc3)cn2)c(=O)c1NC(=O)CCC(=O)O` [Example 23, 4-[(5-Methyl-3-oxo-2-{5-[(6-phenylpyridyl-3-yl)carbamoyl]pyridin-2-yl}-2,3-dihydro-1H-pyrazol-4-yl)amino]-4-oxobutanoic acid] belongs 2.7; to `CC(=O)Nc1c(C)[nH]n(-c2ccc(COCc3ccc(C(F)(F)F)cc3)cn2)c1=O` [Example 24, N-{5-Methyl-3-oxo-2-[5-({[4-(trifluoromethyl)benzyl]oxy}methyl)pyridin-2-yl]-2,3-dihydro-1H-pyrazol-4-yl}acetamide], 22.
To `CC(=O)Nc1c(C)[nH]n(-c2ccc(Cc3ccc(C(F)(F)F)cc3)cn2)c1=O` [Example 25, N-(5-Methyl-3-oxo-2-{5-[4-(trifluoromethyl)benzyl]pyridin-2-yl}-2,3-dihydro-1H-pyrazol-4-yl)acetamide] belongs 16; to `CC(=O)Nc1c(C)[nH]n(-c2ccc(CCc3ccc(C(F)(F)F)cc3)cn2)c1=O` [Example 26, N-[5-Methyl-3-oxo-2-(5-{2-[4-(trifluoromethyl)phenyl]ethyl}pyridin-2-yl)-2,3-dihydro-1H-pyrazol-4-yl]acetamide], 22.
To `CC(=O)Nc1c(C)[nH]n(-c2ccc(/C=C/c3ccc(C(F)(F)F)cc3)cn2)c1=O` [Example 27, N-[5-Methyl-3-oxo-2-(5-{(E)-2-[4-(trifluoromethyl)phenyl]ethenyl}pyridin-2-yl)-2,3-dihydro-1H-pyrazol-4-yl]acetamide] belongs 2.7.
